Laboratory results from patent US8728506B2, “Durable pest repellent and pest repellent resin composition” (Toagosei Co., Ltd., priority 2009, dated 2014).

What was measured:
house dust mite [1] = test: Evaluation of repellency, anti-mite intrusion-prevention method JIS L 1920; format: in vivo; conditions: polyethylene plate, repellent chemical 0.3 %
Description: (§1) Plates molded after adding the pest repellents prepared in Examples 1-1 to 1-10 and Comparative Examples 1-1 to 1-14 and Comparative Reference Example 1-1 to a polyethylene resin (PE-NUC-8350 manufactured by Nippon Unicar Co., Ltd.) so that the pest repellent chemical was 0.3 mass % of the entire resin composition were cut into circles having a diameter of a little under 4 cm and subjected to a test for anti-mite properties. The test was carried by an intrusion-prevention method in accordance with JIS L 1920 ‘Testing methods for efficacy against house dust mite of textiles’. Plates molded after adding the durable pest repellents prepared in Examples 2-1 to 2-4, comparative pest repellents prepared in Comparative Examples 2-1 to 2-4, and Comparative Reference Example 2-1 to a polyethylene resin (PE-NUC-8350 manufactured by Nippon Unicar Co., Ltd.) so that the pest repellent chemical was 0.3 mass % of the entire resin composition were cut into circles having a diameter of a little under 4 cm and subjected to a test for anti-mite properties. The test was carried by an intrusion-prevention method in accordance with JIS L 1920 ‘Testing methods for efficacy against house dust mite of textiles’.

[2] = Heat resistance by thermal analysis (TG/DTA in air); format: physicochemical; conditions: temperature at which amount of supported chemical component is reduced by 1/3, 30-600° C., 20° C./min
Description: Furthermore, it was confirmed by thermal analysis that the supported N,N-diethyl-m-toluamide acquired heat resistance. The thermal analysis was carried out using a Model TG/DTA220 manufactured by Seiko Instruments under an air atmosphere, the measurement temperature was 30° C. to 600° C., and the rate of temperature increase was 20° C./min. Since the measurement is carried out in air, the overall heat resistance in air including vaporization and oxidative decomposition can be evaluated, and N,N-diethyl-m-toluamide that only adheres to the surface of a porous substance having a large specific surface area is subjected to oxidative decomposition at relatively low temperature and the weight decreases, whereas it is expected that N,N-diethyl-m-toluamide that is packed between layers of the inorganic layered compound without gaps is resistant to vaporization and oxidative decomposition and the weight will be maintained up to a higher temperature. […]

house dust mite [3] = test: Evaluation of persistence of repellence (after heating), JIS L 1920; format: in vivo; conditions: polyethylene plate, repellent chemical 0.3 %; held at 81° C. for 48 hours
Description: as §1, with “pest repellent component was 0.3” for “pest repellent chemical was 0.3”, “mass % were held in a dryer at 81° C. for 48 hours. They were cut” for “mass % of the entire resin composition were cut”, “2-1 to 2-12, the comparative pest” for “2-1 to 2-4, comparative pest”

[4] = Evaluation of resin moldability (injection molding in polyethylene resin); format: physicochemical; conditions: repellent chemical 0.3 %, molding 250° C., residence 5 min
Text: The durable pest repellents prepared in Examples 1-1 to 1-10, and the comparative pest repellents prepared in Comparative Examples 1-1 to 1-14 and Comparative Reference Example 1-1 were mixed with a polyethylene resin (PE-NUC-8350, Nippon Unicar Co., Ltd.). For example, in the durable pest repellent of Example 1-1, since the amount of pest repellent chemical supported was 3 mass %, when the amount of repellent added in a resin composition shown in Table 2 was 5%, the amount of pest repellent chemical added was calculated as 0.15 mass %, and when the amount of repellent added in the resin composition was 10%, the amount of pest repellent chemical added was calculated as 0.3 mass %.
Resin compositions were produced by adjusting the amount of each repellent added to the resin composition so that the amount of pest repellent chemical added in the resin composition was 0.3 mass %, 0.15%, and 0.6%, they were injection-molded into flat plates, and evaluation of whether kneading into the resin was possible was carried out. Molding was carried out using a Model M-50A(II)-DM manufactured by Meiki Co., Ltd. at a molding temperature of 250° C., thus giving 10 cm square plates having a thickness of 2 mm. Furthermore, the residence time was 5 minutes, and checks as to whether or not there was foaming, a strange smell, or discoloration during molding were carried out. […]
The durable pest repellents prepared in Examples 2-1 to 2-12, the comparative pest repellents prepared in Comparative Examples 2-1 to 2-4, and Comparative Reference Example 2-1 were mixed with a polyethylene resin (PE-NUC-8350, Nippon Unicar Co., Ltd.). For example, in the durable pest repellent of Example 2-1, since the amount of pest repellent chemical supported was 5 mass %, when the amount of repellent added in a resin composition shown in Table 4 was 3%, the amount of pest repellent chemical added was calculated as 0.15 mass %, and when the amount of repellent added in the resin composition was […], the amount of pest repellent chemical added was calculated as 0.3 mass %. […]

- Heat resistance [2]: 180 °C
- Molding properties Bad smell [4]: Some
- Molding properties Coloration [4]: None
- Molding properties Foaming [4]: Some
Structure (SMILES): CCN(CC)C(=O)c1cccc(C)c1 [Comp. Ref. Ex. 1-1, N,N-diethyl-m-toluamide]
- Initial percentage repellence (house dust mite [1]): 21%
- Post-heating percentage repellence (house dust mite [3]): 0%
